Assay [1] is described as follows: Selectivity ratio of IC50 for Aurora B to IC50 for Tie2.
The target of assay [2] is T1, Angiopoietin-1 receptor (Homo sapiens, UniProt Q02763). Nature of the assay: Inhibition of Tie2 at 1 uM relative to control; values are per cent of control.
Assay [3] deals with T2, Aurora kinase A (Homo sapiens, UniProt O14965).
T2 sequence (O14965 whole entry): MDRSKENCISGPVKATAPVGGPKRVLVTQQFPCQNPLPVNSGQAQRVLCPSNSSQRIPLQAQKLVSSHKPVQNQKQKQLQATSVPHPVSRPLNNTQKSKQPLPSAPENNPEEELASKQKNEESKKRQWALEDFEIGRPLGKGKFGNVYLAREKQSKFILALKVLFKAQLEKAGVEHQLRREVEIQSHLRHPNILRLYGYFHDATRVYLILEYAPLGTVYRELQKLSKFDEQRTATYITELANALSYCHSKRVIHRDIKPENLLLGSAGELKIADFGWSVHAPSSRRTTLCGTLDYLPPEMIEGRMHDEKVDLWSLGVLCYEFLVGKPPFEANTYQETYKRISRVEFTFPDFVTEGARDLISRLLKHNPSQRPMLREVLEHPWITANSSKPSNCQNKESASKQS
Put plainly: Inhibition of Aurora A.

Assay [4] has as its target Tyrosine-protein kinase Lck (Homo sapiens, UniProt P06239). Put plainly: Inhibition of LCK.
Assay [5] addresses T3, Aurora kinase B (Homo sapiens, UniProt Q96GD4). Nature of the assay: Inhibition of Aurora B at 1 uM relative to control; values are per cent of control.
Assay [6] concerns the target T4, Aurora kinase A (Homo sapiens) (UniProt O14965).
T4 sequence (whole entry): T2 sequence (O14965 whole entry)
Nature of the assay: Inhibition of Aurora A at 1 uM relative to control; values are per cent of control.

Assay [7] in a line: Selectivity ratio of IC50 for KDR to IC50 for Tie2.
Assay [8] in a line: Selectivity ratio of IC50 for Aurora A to IC50 for Tie2.
Assay [9] has as its target T3, Aurora kinase B. Put plainly: Inhibition of Aurora B.
Assay [10] concerns the target T5, Vascular endothelial growth factor receptor 2 (Homo sapiens, UniProt P35968). Put plainly: Inhibition of KDR at 1 uM relative to control; values are per cent of control.
Assay [11] is described as follows: Selectivity ratio of IC50 for LCK to IC50 for Tie2.
Assay [12] has as its target T5, Vascular endothelial growth factor receptor 2. Nature of the assay: Inhibition of KDR.
The target in assay [13] is T1, Angiopoietin-1 receptor. Nature of the assay: Inhibition of Tie2.

A word on the residual activity: it is what remains of the control signal, in per cent. Higher therefore signals much activity left. What is called IC50 is the concentration needed to halve the response being measured. A higher IC50 goes with a need for much substance.

T3 sequence (Q96GD4 whole entry): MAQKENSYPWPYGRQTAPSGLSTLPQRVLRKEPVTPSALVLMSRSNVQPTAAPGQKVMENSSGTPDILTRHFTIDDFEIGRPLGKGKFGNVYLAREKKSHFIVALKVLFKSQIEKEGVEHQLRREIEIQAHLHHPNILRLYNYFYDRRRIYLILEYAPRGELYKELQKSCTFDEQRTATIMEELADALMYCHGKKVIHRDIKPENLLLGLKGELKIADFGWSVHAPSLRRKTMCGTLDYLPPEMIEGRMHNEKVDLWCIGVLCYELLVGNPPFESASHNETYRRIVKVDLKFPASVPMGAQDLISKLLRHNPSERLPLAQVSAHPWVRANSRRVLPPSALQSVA
Sequence of Tyrosine-protein kinase Lck (P06239 whole entry): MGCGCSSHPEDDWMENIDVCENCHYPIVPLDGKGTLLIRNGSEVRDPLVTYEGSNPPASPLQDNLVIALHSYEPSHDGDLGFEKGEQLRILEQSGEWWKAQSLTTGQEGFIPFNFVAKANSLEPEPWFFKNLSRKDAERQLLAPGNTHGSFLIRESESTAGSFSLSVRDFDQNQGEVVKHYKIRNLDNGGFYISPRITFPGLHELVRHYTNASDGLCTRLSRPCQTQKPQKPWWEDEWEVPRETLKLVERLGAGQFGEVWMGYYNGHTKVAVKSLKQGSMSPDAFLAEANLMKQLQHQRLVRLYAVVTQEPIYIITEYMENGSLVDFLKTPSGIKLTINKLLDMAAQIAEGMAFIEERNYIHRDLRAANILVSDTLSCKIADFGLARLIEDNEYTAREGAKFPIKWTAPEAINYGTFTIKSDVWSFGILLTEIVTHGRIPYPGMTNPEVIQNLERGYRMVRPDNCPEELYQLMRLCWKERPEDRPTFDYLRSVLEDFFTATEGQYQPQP
T1 sequence (Q02763 whole entry): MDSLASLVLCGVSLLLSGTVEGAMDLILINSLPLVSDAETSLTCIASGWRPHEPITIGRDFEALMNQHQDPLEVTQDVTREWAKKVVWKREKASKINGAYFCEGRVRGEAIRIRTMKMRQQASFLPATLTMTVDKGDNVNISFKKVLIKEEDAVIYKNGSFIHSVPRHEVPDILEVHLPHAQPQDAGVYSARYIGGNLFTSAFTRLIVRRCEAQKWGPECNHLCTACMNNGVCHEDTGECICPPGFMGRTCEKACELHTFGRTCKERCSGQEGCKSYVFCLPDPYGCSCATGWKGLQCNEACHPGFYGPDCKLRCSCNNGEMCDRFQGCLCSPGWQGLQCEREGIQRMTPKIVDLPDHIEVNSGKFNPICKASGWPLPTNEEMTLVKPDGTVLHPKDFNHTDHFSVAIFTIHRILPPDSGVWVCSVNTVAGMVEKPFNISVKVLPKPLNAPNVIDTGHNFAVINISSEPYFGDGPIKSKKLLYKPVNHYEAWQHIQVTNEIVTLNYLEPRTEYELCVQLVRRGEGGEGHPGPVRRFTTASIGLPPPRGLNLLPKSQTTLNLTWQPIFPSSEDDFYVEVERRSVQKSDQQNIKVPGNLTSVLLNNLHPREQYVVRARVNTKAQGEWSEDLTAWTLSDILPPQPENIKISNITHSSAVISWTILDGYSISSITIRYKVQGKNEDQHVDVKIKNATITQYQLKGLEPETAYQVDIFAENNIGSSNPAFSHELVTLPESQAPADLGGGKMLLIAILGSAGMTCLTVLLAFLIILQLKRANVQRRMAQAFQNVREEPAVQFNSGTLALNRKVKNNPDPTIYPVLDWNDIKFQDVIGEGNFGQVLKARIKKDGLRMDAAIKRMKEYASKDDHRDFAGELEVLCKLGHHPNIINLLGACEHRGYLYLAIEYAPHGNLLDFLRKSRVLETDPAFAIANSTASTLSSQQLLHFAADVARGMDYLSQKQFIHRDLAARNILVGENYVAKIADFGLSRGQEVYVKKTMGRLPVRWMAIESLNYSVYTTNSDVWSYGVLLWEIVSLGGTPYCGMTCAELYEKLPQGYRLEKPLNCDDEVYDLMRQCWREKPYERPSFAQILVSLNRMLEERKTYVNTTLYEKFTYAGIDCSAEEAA
T5 sequence (P35968 whole entry): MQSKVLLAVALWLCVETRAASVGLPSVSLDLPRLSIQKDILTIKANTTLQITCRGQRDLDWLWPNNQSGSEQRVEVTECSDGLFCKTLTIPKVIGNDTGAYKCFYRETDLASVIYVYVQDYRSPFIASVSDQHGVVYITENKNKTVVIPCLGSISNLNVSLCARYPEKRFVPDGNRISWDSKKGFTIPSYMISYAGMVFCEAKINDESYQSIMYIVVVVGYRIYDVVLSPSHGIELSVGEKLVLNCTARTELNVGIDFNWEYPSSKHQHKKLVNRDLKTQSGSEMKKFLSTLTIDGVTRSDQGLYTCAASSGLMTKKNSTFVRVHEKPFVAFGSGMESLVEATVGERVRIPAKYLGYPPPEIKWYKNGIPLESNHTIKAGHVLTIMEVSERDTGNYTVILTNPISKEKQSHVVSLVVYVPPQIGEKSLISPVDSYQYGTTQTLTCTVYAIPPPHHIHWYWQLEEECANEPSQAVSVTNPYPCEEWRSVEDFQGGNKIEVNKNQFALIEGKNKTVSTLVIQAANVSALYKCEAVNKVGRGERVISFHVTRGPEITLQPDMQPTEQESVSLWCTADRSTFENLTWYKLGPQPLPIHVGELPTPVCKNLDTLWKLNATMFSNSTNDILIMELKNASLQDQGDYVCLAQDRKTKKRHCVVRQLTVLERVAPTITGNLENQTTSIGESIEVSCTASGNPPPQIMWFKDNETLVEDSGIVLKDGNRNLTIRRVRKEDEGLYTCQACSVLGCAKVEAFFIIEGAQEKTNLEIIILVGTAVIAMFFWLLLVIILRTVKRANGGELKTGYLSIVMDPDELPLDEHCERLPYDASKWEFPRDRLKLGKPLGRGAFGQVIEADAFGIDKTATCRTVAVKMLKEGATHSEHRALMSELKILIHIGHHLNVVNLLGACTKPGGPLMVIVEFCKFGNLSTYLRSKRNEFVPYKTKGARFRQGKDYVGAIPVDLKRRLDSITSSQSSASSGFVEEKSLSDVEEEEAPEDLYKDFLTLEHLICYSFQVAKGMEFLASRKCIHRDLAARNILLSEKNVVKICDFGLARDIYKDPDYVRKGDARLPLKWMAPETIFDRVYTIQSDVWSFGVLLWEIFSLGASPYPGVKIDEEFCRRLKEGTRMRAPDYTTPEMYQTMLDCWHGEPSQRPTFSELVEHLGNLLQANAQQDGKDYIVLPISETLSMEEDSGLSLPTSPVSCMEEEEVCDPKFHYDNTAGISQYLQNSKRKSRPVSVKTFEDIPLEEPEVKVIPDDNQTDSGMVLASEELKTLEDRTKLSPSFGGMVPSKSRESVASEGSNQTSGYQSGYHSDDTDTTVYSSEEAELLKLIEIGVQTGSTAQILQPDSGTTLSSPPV

Turning to `CNc1nccc(-c2cccnc2Oc2ccc(NC(=O)Nc3ccccc3)c3ccccc23)n1`, the Ratio IC50 in [1] came to 4; in assay [7], 7; in [8], 10; in assay [11] it was 9. For the same compound, the residual activity in assay [2] is 1%; in assay [5], 2%; in [6], 5%; in assay [10], 4%. Also, the figures for the IC50 in assay [3], in [4] and in [9] were 52 nM, 48 nM and 23 nM, respectively.
As to `CN(C)CC(C)(C)CNc1nccc(-c2cccnc2Oc2ccc(Nc3nc4ccccc4[nH]3)c3ccccc23)n1`, the Ratio IC50 in [1] came out at 9; in [7], 123; in assay [8] it was 20; in [11], 123. The residual activity amounted to 8% in assay [2], 43% in assay [5], 62% in [6] and 91% in assay [10]. The IC50 was determined as 1660 nM in assay [3]; 10000 nM in assay [4]; 10000 nM in [12]; 82 nM in [13]; 759 nM in assay [9].
As for `CNc1nccc(-c2cccnc2Oc2ccc(Nc3nc4ccc(C(F)(F)F)cc4[nH]3)c3ccccc23)n1`, the Ratio IC50 in assay [1] came out at 2; in assay [7], 3; in [8], 1; in [11], 5. Also, the residual activity was 3% in [2], 5% in assay [5], 2% in assay [6] and 6% in [10].
As for `CNc1nccc(-c2cccnc2Oc2ccc(Nc3nc4ccccc4s3)c3ccccc23)n1`, the Ratio IC50 in assay [1] amounted to 3; in assay [7] it was 2; in [8] it was 9; in assay [11], 2. Also, the residual activity worked out at 4% in [2], 13% in [5], 28% in [6] and 8% in assay [10]. The IC50 in assay [3] was 380 nM; in assay [4] it was 80 nM; in assay [9], 143 nM.
For the compound `CNc1nccc(-c2cccnc2Oc2ccc(Nc3nc4ccccc4o3)c3ccccc23)n1`, the Ratio IC50 in assay [1] stood at 3; in assay [7], 2; in assay [8] it was 9; in assay [11], 2. The residual activity was determined as 2% in [2], 12% in assay [5], 12% in assay [6] and 3% in assay [10]. Further, the figures for the IC50 in assay [3], in assay [4] and in assay [9] were 141 nM, 25 nM and 134 nM, respectively.
Take `CNc1nccc(-c2cccnc2Oc2ccc(Nc3nc4ccccc4[nH]3)c3ccccc23)n1`: the Ratio IC50 in [1] was determined as 7; in [7], 998; in assay [8], 14; in assay [11] it was 211. In addition, the residual activity in [2] was 0%; in assay [5], 1%; in [6], 2%; in [10], 58%. Further, the IC50 worked out at 292 nM in assay [4] and 9 nM in assay [9].
Regarding `CNc1nccc(-c2cccnc2Oc2ccc(NC(=O)NC(C)(C)C)c3ccccc23)n1`, the Ratio IC50 in assay [1] stood at 0.1; in assay [7], 10; in assay [8], 1; in [11], 19. The residual activity came out at 18% in [2], 5% in assay [5], 18% in assay [6] and 69% in assay [10]. Also, the half-inhibitory concentration (IC50) in assay [3] worked out at 225 nM; in [4], 4090 nM; in [12], 2220 nM; in [13], 215 nM; in [9], 55 nM.
`CCN1CCC(CNc2nccc(-c3cccnc3Oc3ccc(Nc4nc5ccccc5[nH]4)c4ccccc34)n2)CC1`: the Ratio IC50 is 100 in assay [1], 1750 in assay [7], 332 in [8] and 387 in assay [11]. Moreover, the residual activity in assay [2] amounted to 0%; in [5], 9%; in [6], 25%; in assay [10] it was 64%. Further, the IC50 in assay [3] was 332 nM; in [4], 387 nM; in assay [12] it was 1750 nM; in [13], 1 nM; in assay [9], 100 nM.
As to `CNc1nccc(-c2cccnc2Oc2ccc(Nc3nc4cc(C(F)(F)F)ccc4[nH]3)c3ccccc23)n1`, the figures for the IC50 in assay [3], in assay [4] and in assay [9] were 16 nM, 132 nM and 56 nM, respectively.
With `CNc1nccc(-c2cccnc2Oc2ccc(Nc3nc4ccncc4[nH]3)c3ccccc23)n1`, the Ratio IC50 stood at 5 in assay [1], 74 in assay [7], 12 in assay [8] and 56 in [11]. In addition, the residual activity stood at 8% in [2], 31% in [5], 52% in assay [6] and 86% in assay [10]. For the same compound, the 50% inhibitory concentration (IC50) is 1070 nM in [3]; 4800 nM in [4]; 6360 nM in assay [12]; 86 nM in [13]; 454 nM in assay [9].
On to `CNc1nccc(-c2cccnc2Oc2c(C)cc(Nc3nc4ccccc4[nH]3)c3ccccc23)n1`, for which the residual activity in assay [2] amounted to 0%; in assay [5], 7%; in assay [6] it was 3%; in assay [10], 91%. For the same compound, the IC50 in assay [3] is 29 nM; in assay [4], 405 nM; in assay [12], 10000 nM; in assay [9] it was 77 nM.
Take `CN1CCCC1CCNc1nccc(-c2cccnc2Oc2ccc(Nc3nc4ccccc4[nH]3)c3ccccc23)n1` (stereo unspecified): the Ratio IC50 in assay [1] amounted to 21; in assay [8] it was 146; in assay [11], 120. Further, the residual activity in assay [2] worked out at 0%; in assay [5], 4%; in assay [6] it was 25%; in assay [10] it was 67%. Further, the IC50 stood at 327 nM in assay [3]; 269 nM in [4]; 2060 nM in assay [12]; 2 nM in assay [13]; 47 nM in assay [9].

The values above are taken from ChEMBL document CHEMBL1155514, “Analysis of kinase inhibitor selectivity using a thermodynamics-based partition index” (J Med Chem, 2010).
